Test results as given in patent publication US20150105252A1, “SUBSTITUTED PYRAZOLES AS HERBICIDES” (E I DU PONT DE NEMOURS AND COMPANY, priority 2013, published 2015).

Legend:
barnyardgrass [1] = test: Test A preemergence; assay type: in vivo, Echinochloa crus-galli; conditions: preemergence
In short: (§1)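 Both timings tested concurrently in loam/sand soil: preemergence by directed soil spray, postemergence on plants of 2–10 cm at the one- to two-leaf stage. Greenhouse holding period was approximately 10 days before visual injury assessment (0–100, 0 = no effect).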

crabgrass, large [2] = test: Test A preemergence; assay type: in vivo, Digitaria sanguinalis; conditions: preemergence
In short: as §1

foxtail, giant [3] = test: Test A preemergence; assay type: in vivo, Setaria faberii; conditions: preemergence
In short: as §1

morningglory [4] = test: Test A preemergence; assay type: in vivo, Ipomoea spp.; conditions: preemergence
In short: as §1

pigweed [5] = test: Test A preemergence; assay type: in vivo, Amaranthus retroflexus; conditions: preemergence
In short: as §1

velvetleaf [6] = test: Test A preemergence; assay type: in vivo, Abutilon theophrasti; conditions: preemergence
In short: as §1

wheat [7] = test: Test A preemergence; assay type: in vivo, Triticum aestivum; conditions: preemergence
In short: as §1

corn [8] = test: Test A preemergence; assay type: in vivo, Zea mays; conditions: preemergence
In short: as §1

barnyardgrass [9] = test: Test A postemergence; assay type: in vivo, Echinochloa crus-galli
In short: as §1

crabgrass, large [10] = test: Test A postemergence; assay type: in vivo, Digitaria sanguinalis
In short: as §1

foxtail, giant [11] = test: Test A postemergence; assay type: in vivo, Setaria faberii
In short: as §1

morningglory [12] = test: Test A postemergence; assay type: in vivo, Ipomoea spp.
In short: as §1

pigweed [13] = test: Test A postemergence; assay type: in vivo, Amaranthus retroflexus
In short: as §1

velvetleaf [14] = test: Test A postemergence; assay type: in vivo, Abutilon theophrasti
In short: as §1

wheat [15] = test: Test A postemergence; assay type: in vivo, Triticum aestivum
In short: as §1

corn [16] = test: Test A postemergence; assay type: in vivo, Zea mays
In short: as §1

rice [17] = test: Test B flood; assay type: in vivo, Oryza sativa; conditions: 250 g ai/ha, visual rating on 0 to 100 scale (0 no effect, 100 complete control), 13 to 15 days
In short: (§2)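 2-leaf plants; pots flooded 3 cm over soil; compound added to paddy water, depth kept constant. Greenhouse 13–15 d. Visual rating vs controls, 0–100 scale (100 = complete control); dash = no result.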

sedge, umbrella [18] = test: Test B flood; assay type: in vivo, Cyperus difformis; conditions: 250 g ai/ha, visual rating on 0 to 100 scale (0 no effect, 100 complete control), 13 to 15 days
In short: as §2

ducksalad [19] = test: Test B flood; assay type: in vivo, Heteranthera limosa; conditions: 250 g ai/ha, visual rating on 0 to 100 scale (0 no effect, 100 complete control), 13 to 15 days
In short: as §2

barnyardgrass [20] = test: Test B flood; assay type: in vivo, Echinochloa crus-galli; conditions: 250 g ai/ha, visual rating on 0 to 100 scale (0 no effect, 100 complete control), 13 to 15 days
In short: as §2

rice [21] = test: Test C flooded paddy test; assay type: in vivo, Oryza sativa; conditions: Flood
In short: (§3)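 Ratings were visual and made relative to untreated controls after 13 to 15 greenhouse days.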

sedge, umbrella [22] = test: Test C flooded paddy test; assay type: in vivo, Cyperus difformis; conditions: Flood
In short: as §3

ducksalad [23] = test: Test C flooded paddy test; assay type: in vivo, Heteranthera limosa; conditions: Flood
In short: as §3

barnyardgrass [24] = test: Test C flooded paddy test; assay type: in vivo, Echinochloa crus-galli; conditions: Flood
In short: as §3

kochia [25] = test: Test A preemergence; assay type: in vivo, Kochia scoparia
Excerpt: (§4) Seeds of plant species selected from barnyardgrass (Echinochloa crus-galli), kochia (Kochia scoparia), common ragweed (Ambrosia elation), Italian ryegrass (Lolium multiflorum), crabgrass, large (large crabgrass, Digitaria sanguinalis), foxtail, giant (giant foxtail, Setaria faberii), morningglory (Ipomoea spp.), pigweed (redroot pigweed, Amaranthus retroflexus), velvetleaf (Abutilon theophrasti), wheat (Triticum aestivum), and corn (Zea mays) were planted into a blend of loam soil and sand and treated preemergence with a directed soil spray using test chemicals formulated in a non-phytotoxic solvent mixture which included a surfactant.
(§5) At the same time, plants selected from these crop and weed species and also blackgrass (Alopecurus myosuroides), and galium (catchweed bedstraw, Galium aparine) were planted in pots containing the same blend of loam soil and sand and treated with postemergence applications of test chemicals formulated in the same manner. Plants ranged in height from 2 to 10 cm and were in the one- to two-leaf stage for the postemergence treatment. Treated plants and untreated controls were maintained in a greenhouse for approximately 10 days, after which time all treated plants were compared to untreated controls and visually evaluated for injury. Plant response ratings, summarized in Table A, are based on a 0 to 100 scale where 0 is no effect and 100 is complete control. A dash (-) response means no test result.

common ragweed [26] = test: Test A preemergence; assay type: in vivo, Ambrosia elation; conditions: 125 g ai/ha, visual injury, 0 to 100 scale, approx. 10 days
Excerpt: as §4, §5

Italian ryegrass [27] = test: Test A preemergence; assay type: in vivo, Lolium multiflorum
Excerpt: as §4, §5

kochia [28] = test: Test A postemergence; assay type: in vivo, Kochia scoparia
Excerpt: as §4, §5

common ragweed [29] = test: Test A postemergence; assay type: in vivo, Ambrosia elation
Excerpt: as §4, §5

Italian ryegrass [30] = test: Test A postemergence; assay type: in vivo, Lolium multiflorum
Excerpt: as §4, §5

blackgrass = test: Test A postemergence; assay type: in vivo, Alopecurus myosuroides
Excerpt: as §4, §5

galium = test: Test A postemergence; assay type: in vivo, Galium aparine
Excerpt: as §4, §5

[31] = 125 g ai/ha, visual injury, 0 to 100 scale, approx. 10 days
[32] = 500 g ai/ha, visual injury after approx. 10 days, 0 to 100 scale (0 no effect, 100 complete control)
[33] = Postemergence, 500 g ai/ha, visual rating after approx. 10 days, 0 to 100 scale (0 no effect, 100 complete control)
[34] = postemergence, 125 g ai/ha, about 10 days, visual rating on 0 to 100 scale (0 no effect, 100 complete control)
[35] = 31 g ai/ha, scale 0 to 100 (0 no effect, 100 complete control)
[36] = 62 g ai/ha, scale 0 to 100 (0 no effect, 100 complete control)
[37] = Postemergence, 500 g ai/ha, 0 to 100 scale (0 no effect, 100 complete control)

CCc1cc(C(=O)NCC(F)(F)F)nn1Cc1ccnc(OCC(F)(F)F)c1 [Compound 106]
Barnyardgrass plant response rating (barnyardgrass [1]; [31]): 50
Barnyardgrass plant response rating (barnyardgrass [1]; [32]): 100
Crabgrass, Large plant response rating (crabgrass, large [2]; [31]): 100
Crabgrass, Large plant response rating (crabgrass, large [2]; [32]): 100
Foxtail, Giant plant response rating (foxtail, giant [3]; [31]): 100
Foxtail, Giant plant response rating (foxtail, giant [3]; [32]): 100
Morningglory plant response rating (morningglory [4]; [31]): 30
Morningglory plant response rating (morningglory [4]; [32]): 100
Pigweed plant response rating (pigweed [5]; [31]): 100
Pigweed plant response rating (pigweed [5]; [32]): 100
Velvetleaf plant response rating (velvetleaf [6]; [31]): 10
Velvetleaf plant response rating (velvetleaf [6]; [32]): 100
Wheat plant response rating (wheat [7]; [31]): 10
Wheat plant response rating (wheat [7]; [32]): 30
Corn plant response rating (corn [8]; [31]): 20
Corn plant response rating (corn [8]; [32]): 30
Barnyardgrass plant response rating (barnyardgrass [9]; [33]): 80
Barnyardgrass plant response rating (barnyardgrass [9]; [34]): 50
Crabgrass, Large plant response rating (crabgrass, large [10]; [33]): 90
Crabgrass, Large plant response rating (crabgrass, large [10]; [34]): 50
Foxtail, Giant plant response rating (foxtail, giant [11]; [33]): 80
Foxtail, Giant plant response rating (foxtail, giant [11]; [34]): 50
Morningglory plant response rating (morningglory [12]; [33]): 100
Morningglory plant response rating (morningglory [12]; [34]): 50
Pigweed plant response rating (pigweed [13]; [33]): 100
Pigweed plant response rating (pigweed [13]; [34]): 90
Velvetleaf plant response rating (velvetleaf [14]; [33]): 70
Velvetleaf plant response rating (velvetleaf [14]; [34]): 40
Wheat plant response rating (wheat [15]; [33]): 40
Wheat plant response rating (wheat [15]; [34]): 10
Corn plant response rating (corn [16]; [33]): 60
Corn plant response rating (corn [16]; [34]): 30
Plant response rating, Rice (rice [17]): 20
Plant response rating, Sedge, Umbrella (sedge, umbrella [18]): 90
Plant response rating, Ducksalad (ducksalad [19]): 90
Plant response rating, Barnyardgrass (barnyardgrass [20]): 30
Plant response rating, Rice (rice [21]; [35]): 0
Plant response rating, Rice (rice [21]; [36]): 0
Plant response rating, Rice (rice [21]; 125 g ai/ha, scale 0 to 100): 0
Plant response rating, Rice (rice [21]; 250 g ai/ha, scale 0 to 100): 0
Plant response rating, Sedge, Umbrella (sedge, umbrella [22]; [35]): 70
Plant response rating, Sedge, Umbrella (sedge, umbrella [22]; [36]): 85
Plant response rating, Sedge, Umbrella (sedge, umbrella [22]; 125 g ai/ha, scale 0 to 100): 95
Plant response rating, Sedge, Umbrella (sedge, umbrella [22]; 250 g ai/ha, scale 0 to 100): 98
Plant response rating, Ducksalad (ducksalad [23]; [35]): 40
Plant response rating, Ducksalad (ducksalad [23]; [36]): 50
Plant response rating, Ducksalad (ducksalad [23]; 125 g ai/ha, scale 0 to 100): 70
Plant response rating, Ducksalad (ducksalad [23]; 250 g ai/ha, scale 0 to 100): 70
Plant response rating, Barnyardgrass (barnyardgrass [24]; [35]): 0
Plant response rating, Barnyardgrass (barnyardgrass [24]; [36]): 0
Plant response rating, Barnyardgrass (barnyardgrass [24]; 125 g ai/ha, scale 0 to 100): 20
Plant response rating, Barnyardgrass (barnyardgrass [24]; 250 g ai/ha, scale 0 to 100): 30

CCCNC(=O)c1cc(CC)n(Cc2cc(C(F)(F)F)no2)n1 [Compound 122]
Barnyardgrass plant response rating (barnyardgrass [1]; [31]): 0
Barnyardgrass plant response rating (barnyardgrass [1]; [32]): 100
Kochia plant response rating (kochia [25]; [31]): 10
Kochia plant response rating (kochia [25]; [32]): 90
Common Ragweed plant response rating (common ragweed [26]): 10
Italian Ryegrass plant response rating (Italian ryegrass [27]; [31]): 0
Italian Ryegrass plant response rating (Italian ryegrass [27]; [32]): 30
Foxtail, Giant plant response rating (foxtail, giant [3]; [31]): 20
Foxtail, Giant plant response rating (foxtail, giant [3]; [32]): 100
Pigweed plant response rating (pigweed [5]; [31]): 60
Pigweed plant response rating (pigweed [5]; [32]): 100
Barnyardgrass plant response rating (barnyardgrass [9]; [37]): 70
Barnyardgrass plant response rating (barnyardgrass [9]; [34]): 0
Kochia plant response rating (kochia [28]; [37]): 90
Kochia plant response rating (kochia [28]; [34]): 50
Common Ragweed plant response rating (common ragweed [29]; [37]): 30
Common Ragweed plant response rating (common ragweed [29]; [34]): 10
Italian Ryegrass plant response rating (Italian ryegrass [30]; [37]): 50
Italian Ryegrass plant response rating (Italian ryegrass [30]; [34]): 10
Foxtail, Giant plant response rating (foxtail, giant [11]; [37]): 90
Foxtail, Giant plant response rating (foxtail, giant [11]; [34]): 0
Pigweed plant response rating (pigweed [13]; [37]): 40
Pigweed plant response rating (pigweed [13]; [34]): 30
Wheat plant response rating (wheat [15]; [37]): 10
Wheat plant response rating (wheat [15]; [34]): 0
Corn plant response rating (corn [16]; [37]): 60
Corn plant response rating (corn [16]; [34]): 20
Blackgrass plant response rating (blackgrass; [37]): 80
Blackgrass plant response rating (blackgrass; [34]): 10
Galium plant response rating (galium; [37]): 70
Galium plant response rating (galium; [34]): 10
Plant response rating, Rice (rice [17]): 30
Plant response rating, Sedge, Umbrella (sedge, umbrella [18]): 50
Plant response rating, Ducksalad (ducksalad [19]): 50
Plant response rating, Barnyardgrass (barnyardgrass [20]): 20
